Source: the NIST ThermoML archive (doi:10.1021/je8003673)
Numbers after ± are expanded uncertainties.

Conditions: Crystal; DTA

Normal melting temperature: 243.12 ± 0.5 °C
SMILES: Nc1ccc(N)c2c1C(=O)c1ccccc1C2=O [1,4-diaminoanthraquinone]
